In patent EP0951284B1, “[…] DERIVATIVES” (priority 1996, dated 1998):
Where a name gives a salt, the structure may show the parent alone.

Legend:
mice = assay: Closed head injury in mice: reference memory, Morris water maze; format: in vivo; conditions: Morris water maze after CHI, compared to saline treated controls (Figure 1)
Protocol: Morris Water Maze Teat: the water maze consists of a circular aluminium pool, 1m in diameter and 60cm in depth, filled with water to a depth of 17.5cm. The hidden goal platform is a glass vessel (15cm diameter x 16. 5cm height) placed upside down at a fixed location in the pool, 1cm below the surface of the water. The water temperature is maintained at 24°C and the pool is always placed in the same position in the room to provide the same extra-maze cues. Prior to CHI (as described in Example 3 above), mice were given 3 trials per day for 5 consecutive days to establish a baseline performance - measured as the latency to find the platform from the same start location. Commencing 24hr after CHI, mice were retested daily for 2 weeks in 3 trials per day.
It appears that immediately post-CHI mice forget the location of the goal.

MAO-B = target: T1, MAO-B (Rattus norvegicus, UniProt P19643); assay: Inhibition of MAO activity following sub-acute (14 days) administration to rats, MAO-B; format: in vivo; parameters: from tissue; host or cells: brain, liver and intestine of Sprague Dawley rats; conditions: 20mg/kg daily for 14 days
T1 sequence (P19643 1-520): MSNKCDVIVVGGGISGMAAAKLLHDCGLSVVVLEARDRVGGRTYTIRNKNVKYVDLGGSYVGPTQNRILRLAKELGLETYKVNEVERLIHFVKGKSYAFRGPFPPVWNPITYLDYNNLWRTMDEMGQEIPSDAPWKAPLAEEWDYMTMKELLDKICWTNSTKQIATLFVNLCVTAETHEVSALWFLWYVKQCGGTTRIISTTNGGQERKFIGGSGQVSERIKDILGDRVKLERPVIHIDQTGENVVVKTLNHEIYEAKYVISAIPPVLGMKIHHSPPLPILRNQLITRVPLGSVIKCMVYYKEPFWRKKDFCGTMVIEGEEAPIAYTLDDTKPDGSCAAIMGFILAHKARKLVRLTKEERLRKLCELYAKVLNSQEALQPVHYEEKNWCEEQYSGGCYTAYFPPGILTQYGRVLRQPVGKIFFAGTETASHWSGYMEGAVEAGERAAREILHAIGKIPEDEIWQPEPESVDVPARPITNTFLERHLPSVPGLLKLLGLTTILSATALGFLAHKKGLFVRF
Protocol: Male Sabra mice, weighing 45-50g were injected with test compound solutions (prepared in 0.9% saline). Each dose was administered to two or three mice. The mice were sacrificed two hours after drug administration or at a time corresponding to the peak AChE inhibition time (see Table 6). The brain and liver were rapidly dissected and stored in appropriate vials on ice. The tissues were weighed, diluted to 1/20 in sucrose 0.3M and stored at -20°C before performance of the MAO assay described above. The results given in Table 6 relate to measurements made on brain tissue only.
Experiments were done with Spague Dawley male rats. Procedures were repeated as described in Examples 2.1 and 2.2, but drug administration was continued daily for 14 days. At the end of this period animals were sacrificed and MAO levels determined in the brain, liver and intestines. Compound 17 was administered sub-cutaneously or per os at a dose of 20mg/kg.

C#CCNC(C)Cc1cccc(OC(=O)N(C)CC)c1 (stereo not drawn) [Compound 17, 3-(N-Me,N-Etcarbamyloxy)α-methyl, N-propargyl phenethylamine.HCl]
latency to find the platform (mice): reduction in latency
inhibition at 20 mg/kg (MAO-B; po, Brain): 72%
inhibition at 20 mg/kg (MAO-B; po, Intestine): 40%
inhibition at 20 mg/kg (MAO-B; po, Liver): 74%
inhibition at 20 mg/kg (MAO-B; sc, Brain): 87%
inhibition at 20 mg/kg (MAO-B; sc, Intestine): 33%
inhibition at 20 mg/kg (MAO-B; sc, Liver): 51%
